How the values were obtained:
[1] = test system: Isolated Guinea pig ileum; test: Isolated Guinea pig ileum preparation; details: in vitro
[2] = test system: Hypertensive rat model preparation; test: Effect on blood pressure, heart rate and adrenaline vasopressor response, hypertensive rat model preparation; format: in vivo
Procedure: (§1) 2. Effect on blood pressure, heart rate and adrenaline vasopressor response of anaesthetized (pentobarbitone sodium 40 & 60 mg/kg i.p. in cat and rat respectively) normotensive & hypertensive rat & cat model preparations.

Site of action: ICV = format: in vivo; details: dose 0.34-1.36
Rat aortic ring = Rat aortic ring preparation, NE induced contraction; details: in vitro
[3] = test system: Langendorff perfused rat heart; test: Cardioprotective activity, Langendorff perfused rat heart, prolong period of ischemic insult
Procedure: Further, in Langendorff perfused rat heart preparation subjected to even up to 90 mm. global ischemia, the compound at 0.001 ug/ml conc.
The rats were killed by decaptitation, heart were rapidly excised and placed in ice-cold HEPES tyrode buffer. Then isolated hearts were perfused retrogradely through coronary arteries using the Langendorff technique. The perfusion buffer consisted (in mM) NaCl 137, KCl 5.4, CaCl2 1.8, MgCl2 1.0, glucose 11.2 and HEPES 3.0. The buffer (pH 7.4) was continuously gassed with oxygen and maintained at 37° C. Coronary flow rate was maintained at 10 ml/min. The heart contracted spontaneously.
The perfused heart was allowed to equillibrate for 30 min. before initiation of any insult protocol. The test compounds were given at the time of reperfusion. Some of the compounds were dissolved in ethanol. Final concentration of ethanol in the perfusion buffer was 0.0001% and had no effect of its own on the parameter used.
(b) For prolong period of ischemic insult (Becker, L. C. & Ambrosio, G. Myocardial consenquences of reperfusion. Prog. Cardiovas. Dis., 30, 23-44, 1987). Ischemia was initiated by stopping the flow for 30 min. followed by 30 min. reperfusion.

anaesthetized cat = test: Effect on blood pressure, heart rate and adrenaline vasopressure response at anaesthetized cat; format: in vivo
Procedure: Effect on blood pressure, heart rate and adrenaline
(§2) (a) Cats (2.6-4.0 kg) of either sex anaesthetized with pentobarbitone sodium (40 mg/kg i.v.) and showing basal mean arterial blood pressure below 150 mm (Hg) were categorised as normotensive and above 150 mm Hg as hypertensive. Arterial blood pressure (EP) was recorded from one of the carotid artery through a stathum P23 DC pressure transducer and 7P1 low level DC preamplifier on a Grass Model P7 Polygraph, Signals from 7P1 preamplifier were used to trigger 7P4 Tachograph preamplifier for recording the heart rate (HR). Right femoral vein and Trachea were cannulated for intravenous injections and artificial ventilation respectively. Control responses to intravenous injection of noradrenaline (2-4 ug); acetyl choline (1-2 ug); histamine (1-2 ug) and isoprenaline (1-2 ug) were taken before and after the administration of test doses of each compounds.

Isolated aortic strip = test: Isolated aortic strip, endothelin induced contraction
[4] = test system: Naturally occurring hypertensive cat; test: Effect on blood pressure, heart rate and adrenaline vasopressor response, naturally occurring hypertensive cat; format: in vivo; details: n = 4
Procedure: as §1, §2

cat = test: Drug antagonism studies at 2 uMol dose i.v. in cat; format: in vivo; details: 2 uMol i.v.
Excerpt: (B) In viva Drug antagonism studies at 2 uMol dose i.v. in cat: […]

perfused rat heart = test: Langendorffs perfused rat heart preparation, chronotropic effect
[5] = test system: Normotensive rat model preparation; test: Effect on blood pressure, heart rate and adrenaline vasopressor response, normotensive rat model preparation; format: in vivo; details: n = 2
Procedure: as §1

Normotensive cat = test: Effect on blood pressure, heart rate and adrenaline vasopressor response, normotensive cat; format: in vivo; details: n = 4
Procedure: as §1, §2

[6] = 0.001 ug/ml at the time of reperfusion, up to 90 mm. global ischemia
[7] = Felis catus, iv, 2.0 umol/kg i.v.
[8] = Felis catus, iv, 10.0 umol/kg i.v., read-out: B.P. fall %
[9] = Felis catus, iv, 10.0 umol/kg i.v.

## O=C1CCCN1CCCN1CCN(c2ccc(F)cc2)CC1 [C6 H4-4-F, n=1, 1-[4-(4-fluorophenyl)piperazin-1-yl]-3-[2-oxopyrrolidin-1-yl]propane]
[1]
  Endothelin response: relaxation rather than contraction
[2]; 5 uMol/kg i.d., n = 3
  Adrenaline vasopressure response % inhibition: 33%
  B.P. Fall duration: 51 min
[2]; 10 uMol/kg i.d., n = 5
  Adrenaline vasopressure response % inhibition: 23%
  B.P. Fall duration: 76 min
[2]; 20 uMol/kg i.d., n = 1
  Adrenaline vasopressure response % inhibition: 54%
  B.P. Fall duration: 100 min
Site of action: ICV
  B.P. fall Dur.: 10 to 15 min
Rat aortic ring
  NE induced contraction: inhibited
[3]; [6]
  Incidence of reperfusion induced arrhythmia: abolished
  Revival of normal rhythmic contraction, start: ≤ 2 mm.
[3]; compared with antihypertensive dose
  Cardioprotective effect against myocardial stunning, dose: much smaller dose than antihypertensive dose
Anaesthetized cat; 10.0 umol/kg i.v.
  Adrenaline vasopressure response (R/Pt): R
Anaesthetized cat; [7]
  inhibition in vivo at 2 µmol/kg: 9%
Isolated aortic strip; after washing the preparation
  Endothelin response after washing the preparation: relaxation rather than contraction
Isolated aortic strip; in vitro
  Endothelin induced contraction: inhibited significantly
[4]; 10 uMol/kg i.d.
  Adrenaline vasopressure response % inhibition: 49%
  B.P. Fall duration: 110 min
[4]; 20 uMol/kg i.d.
  Adrenaline vasopressure response, R (Reversal): 26%
  B.P. Fall duration: > 156.75 min
cat; Dup-753 (angiotension II-receptor antagonist) pretreatment
  Reduction of antihypertensive effect by pretreatment: 33%
cat; atropine sulphate pretreatment
  Antihypertensive effect after pretreatment: failed to alter
cat; captopril (ACE inhibitor) pretreatment
  Reduction of antihypertensive effect by pretreatment: 33%
cat; glibenclamide (KATP blocker) pretreatment
  Fall in blood pressure after pretreatment: only partially reduced
cat; mepyramine maleate pretreatment
  Antihypertensive effect after pretreatment: failed to alter
cat; prazosin (alpha1-adrenergic receptor blocker) pretreatment, significantly
  Reduction of antihypertensive effect by pretreatment: 90%
cat; propranolol pretreatment
  Antihypertensive effect after pretreatment: failed to alter
cat; verapamil (Ca++ channel blocker) pretreatment, significantly
  Reduction of antihypertensive effect by pretreatment: 50%
cat; yohimbine pretreatment
  Antihypertensive effect after pretreatment: failed to alter
Perfused rat heart; 1 ug
  Negative chronotropic effect, duration: 10 min
Perfused rat heart; 3 ug (higher doses 3-5 ug)
  Negative chronotropic effect, duration: 14 min
Perfused rat heart; 5 ug (higher doses 3-5 ug)
  Negative chronotropic effect, duration: 5 min
Perfused rat heart; Rattus norvegicus, 1 ug, read-out: Negative chronotropic effect
  inhibition at 0.001 mg: 30%
Perfused rat heart; Rattus norvegicus, 3 ug (higher doses 3-5 ug), read-out: Negative chronotropic effect
  inhibition at 0.003 mg: 26%
Perfused rat heart; Rattus norvegicus, 5 ug (higher doses 3-5 ug), read-out: Negative chronotropic effect
  inhibition at 0.005 mg: 5%
[5]; 2 uMol/kg i.v.
  Adrenaline vasopressure response % inhibition: +7%
[5]; 10 uMol/kg i.v.
  Adrenaline vasopressure response % inhibition: +14%
[5]; 20 uMol/kg i.v.
  Adrenaline vasopressure response % inhibition: -9.5%
Normotensive cat; 10 uMol/kg i.d.
  Adrenaline vasopressure response % inhibition: 26%
  B.P. Fall duration: 85 min
Normotensive cat; 20 uMol/kg i.d.
  B.P. Fall duration: > 102.5 min

## O=C1CCCN1CCCN1CCN(c2ccccn2)CC1 [2-Pyridyl, n=1]
Anaesthetized cat; 10.0 umol/kg i.v.
  Adrenaline vasopressure response (R/Pt): Pt (potentiation (was within 20%))
Anaesthetized cat; Felis catus, iv, 2.0 umol/kg i.v., read-out: B.P. fall %
  Blood pressure fall % at 2 µmol/kg: 22%
Anaesthetized cat; [8]
  Blood pressure fall % at 10 µmol/kg: 40%

## O=C1CCCCN1CCCN1CCN(c2cccc(Cl)c2)CC1 [C6 H4-3-Cl, n=2, 1-[4-(3-chlorophenyl)piperazin-1-yl]-3-[2-oxopiperidin-1-yl]propane]
Anaesthetized cat; [7]
  inhibition in vivo at 2 µmol/kg: 33%
Anaesthetized cat; [9]
  inhibition in vivo at 10 µmol/kg: 10%

## CCc1ccccc1N1CCN(CCCN2CCCC2=O)CC1 [C6 H4-2-C2 H5, n=1, 1-[4-(2-ethylphenyl)piperazin-1-Yl]-3-[2-oxopyrrolidin-1-yl]propane]
Anaesthetized cat; 2.0 umol/kg i.v.
  Adrenaline vasopressure response (R/Pt): Pt (potentiation (was within 20%))

## O=C1CCCCN1CCCN1CCN(c2ccc(Cl)cc2)CC1 [C6 H4-4-Cl, n=2, 1-[4-(4-chlorophenyl)piperazin-1-yl]-3-[2-oxopiperidin-1-yl]propane]
Anaesthetized cat; [7]
  inhibition in vivo at 2 µmol/kg: 20%
Anaesthetized cat; [9]
  inhibition in vivo at 10 µmol/kg: 25%

## O=C1CCCCN1CCCN1CCN(c2ccccn2)CC1 [2-Pyridyl, n=2, 1-[4-(2-pyridyl)piperazin-1-yl]-3-[2-oxopiperidin-1-yl]propane]
Anaesthetized cat; 10.0 umol/kg i.v.
  Adrenaline vasopressure response (R/Pt): Pt (potentiation (was within 20%))
Anaesthetized cat; [7]
  inhibition in vivo at 2 µmol/kg: 28%

## O=C1CCCCN1CCCN1CCN(c2ccc(F)cc2)CC1 [C6 H4-4-F, n=2, 1-[4-(4-fluorophenyl)piperazin-1-yl]-3-[2-oxopiperidin-1-yl]propane]
Anaesthetized cat; 10.0 umol/kg i.v.
  Adrenaline vasopressure response (R/Pt): R
Anaesthetized cat; [7]
  inhibition in vivo at 2 µmol/kg: 46%

## O=C1CCCN1CCCN1CCN(c2cccc(F)c2)CC1 [C6 H4-3-F, n=1, 1-[4-(3-fluorophenyl)piperazin-1-yl)-3-[2-oxopyrrolidin-1-yl]propane]
Anaesthetized cat; 10.0 umol/kg i.v.
  Adrenaline vasopressure response (R/Pt): R
Anaesthetized cat; [7]
  inhibition in vivo at 2 µmol/kg: 80%

## O=C1CCCN1CCCN1CCN(c2cccc(Cl)c2)CC1 [C6 H4-3-Cl, n=1, 1-[4-(3-chlorophenyl)piperazin-1-yl]-3-[2-oxopyrrolidin-1-yl]propane]
Anaesthetized cat; 2.0 umol/kg i.v.
  Adrenaline vasopressure response (R/Pt): Pt-

## COc1ccccc1N1CCN(CCCN2CCCC2=O)CC1 [C6 H4-2-OCH3, n=1]
Anaesthetized cat; 2.0 umol/kg i.v.
  B.P. fall %: 19%
Anaesthetized cat; 10.0 umol/kg i.v.
  Adrenaline vasopressure response (R/Pt): R
Anaesthetized cat; [8]
  Blood pressure fall % at 10 µmol/kg: 23%

## O=C1CCCCN1CCCN1CCN(c2cccc(C(F)(F)F)c2)CC1 [C6 H4-3-CF3, n=2, 1-[4-(3-trifluoromethylphenyl)piperazin-1-yl]-3-[2-oxopiperidin-1-yl]propane]
Anaesthetized cat; 2.0 umol/kg i.v.
  Adrenaline vasopressure response (R/Pt): Pt (potentiation (was within 20%))
Anaesthetized cat; 10.0 umol/kg i.v.
  Dur.: Tr
Anaesthetized cat; [9]
  inhibition in vivo at 10 µmol/kg: 25%

Reference: patent US6084097A, “Methods for preparing 1-[4-arylpiperazin-1-yl]-3-[2-oxopyrrolidin/piperidin-1-yl] propanes” (Council of Scientific & Industrial Research, priority 1997, dated 2000)
